Source: patent US20220168434A1, “APPLICATION OF TRANSTHYRETIN IN ENTERING EYE AND PREPARING DROP” (YIZHOU (SHANGHAI) BIOLOGICAL MEDICINE CO, LTD., priority 2019, published 2022)

Key:
[1] = biological target: TTR dimer (Homo sapiens, UniProt P02766); conditions: static co-crystallization model in the PDB database (3CFQ); cited from earlier work
[2] = biological target: T1, TTR (Homo sapiens, UniProt P02766); assay: Affinity binding equilibrium dissociation constant Kd of TTR and ligand molecules by nano ITC; conditions: 10 μmol/L TTR solution, 100 μmol/L ligand solution dropped at 1 μL/min, read-out: Affinity binding equilibrium dissociation constants (Kd) of ligand molecule and TTR
T1 construct: made in house; host or cells: E. coli BL21 (DE3)
Protocol: The affinity binding equilibrium dissociation constant Kd of TTR and each ligand molecule or salts thereof described in Example 24 was determined by nano ITC (TA).

[3] = tested on: DR SD rats induced by STZ; assay: DR (diabetic retinopathy) SD rats induced by STZ, eye dropping, EB staining and Trypsin enzymatic hydrolysis of retina; format: in vivo; conditions: for eyeball retinal leakage condition (in words) / number of retinal neovascularization (in words): eye dropping twice per day
Protocol: 8-week-old SD rats weighing 200-250 g was fasted for 12-18 h, and treated with intraperitoneally injection of 2% STZ (60 mg/kg), followed by cutting the tail and collecting blood thereof after 48 h and 72 h. […] DR SD rats were divided into 2 large groups, one is DR SD rats without any treatment (5 rats), and the other is the human TTR eye dropping group (25 rats) dropped with the human TTR prepared in Example 5, each left eye dropped with human TTR (5-20 μmol/L) (normal saline+2% hyaluronic acid) twice a day, and each right eye dropped with saline+2% hyaluronic acid; in addition, another group of normal SD rats (No eye dropping) served as a normal control group (5 rats).
8-week-old SD rats weighing 200-250 g was fasted for 12-18 h, and treated with intraperitoneally injection of 2% STZ (60 mg/kg), followed by cutting the tail and collecting blood thereof after 48 h and 72 h. […]
8-week-old SD rats weighing 200-250 g, was fasted for 12-18 h, and treated with intraperitoneally injection of 2% STZ (60 mg/kg), followed by cutting the tail and collecting blood thereof after 48 h and 72 h. […] Wherein, the left eye was dropped with human TTR prepared in Example 5, or human TTR prepared in Example 5 added with the ligand, specifically with 10 μmol/L human TTR (saline solution+2% hyaluronic acid), 10 μmol/L human TTR (saline solution+2% hyaluronic acid+10 diclofenac sodium), 10 μmol/L human TTR (saline solution+2% hyaluronic acid+5 μmol/L vitamin A+5% Tween 80) and 10 μmol/L human TTR (saline solution+2% hyaluronic acid+5 luteoloside); the right eye was dropped with saline solution+2% hyaluronic acid, or saline solution+2% hyaluronic acid+ligand as control, specifically with saline solution+2% hyaluronic acid, saline solution+2% hyaluronic acid+10 diclofenac sodium, saline solution+2% hyaluronic acid+5 μmol/L vitamin A+5% Tween 80 and saline solution+2% hyaluronic acid+5 μmol/L luteoloside. In addition, there was another group of normal SD rats as a normal control group (5 rats). All SD rats were fed for 3 months, followed by stripping the retina for staining with Evans Blue (EB) to observe the retinal vascular leakage, for Trypsin enzymatic hydrolysis to observe the density of neovascularization.

[4] = tested on: ROP SD suckling rats induced by hyperbaric oxygen chamber; assay: ROP (retinopathy of prematurity) SD suckling rats induced by hyperbaric oxygen chamber, eye dropping, EB staining of retina; format: in vivo
[5] = tested on: AMD C57BL/6 mice induced by laser retinal photocoagulation; assay: AMD (age-related macular degeneration) C57BL/6 mice induced by laser retinal photocoagulation, eye dropping, EB staining and Trypsin enzymatic hydrolysis of retina; format: in vivo; conditions: for eyeball retinal leakage condition (in words) / number of retinal neovascularization / neovascularization condition (in words): 10 μmol/L, eye dropping twice per day
Source text: (§1) 9-week-old C57BL/6 mice were subject to retinal photocoagulation by krypton laser (647 nm), with a power of 360 mW, a diameter of 50 μm, a time of 0.05 s, 8 photocoagulation site for each eye, for inducing the neovascularization in choroid, and gradually proceeding to retinal hyperplasia to obtain AMD C57BL/6 mice. AMD C57BL/6 mice were divided into a dropping group and a non-dropping group.
as §1, with “group. […] The animals were sacrificed after eye dropping for 2 weeks, and the retina was stripped for EB staining to observe the retinal leakage conditions, and for Trypsin enzymatic hydrolysis to observe the density of neovascularization.” for “group.”
9-week-old C57BL/6 mice were subject to retinal photocoagulation by krypton laser (647 nm), with a power of 360 mW, a diameter of 50 μm, a time of 0.05 s, 8 photocoagulation site for each eye, for inducing the neovascularization in choroid, and gradually proceeding to retinal hyperplasia to obtain AMD C57BL/6 mice. […] Wherein, the left eye was dropped with human TTR prepared in Example 5, or human TTR prepared in Example 5 added with the excipient, specifically with 10 μmol/L human TTR (saline solution), 10 μmol/L human TTR (saline solution+6 mg/mL sodium carboxymethyl cellulose), 10 μmol/L human TTR (saline solution+6 mg/mL PEG400), 10 μmol/L human TTR (saline solution+0.4 mg/mL dextran 70) and 10 μmol/L human TTR (saline solution+20 mg/mL chondroitin sulfate A sodium salt); the right eye was dropped with saline solution, or saline solution added with the excipient as control, specifically with saline solution, saline solution+6 mg/mL sodium carboxymethyl cellulose, saline solution+6 mg/mL PEG400, saline solution+0.4 mg/mL dextran 70 and saline solution+20 mg/mL chondroitin sulfate A sodium salt). In addition, there was another group of normal […] C57BL/6 mice as a normal control group (5 mice). The animals were sacrificed after eye dropping for 2 weeks, and the retina was stripped for EB staining to observe the retinal leakage conditions, and for Trypsin enzymatic hydrolysis to observe the density of neovascularization.
9-week-old C57BL/6 mice were subject to retinal photocoagulation by krypton laser (647 nm), with a power of 360 mW, a diameter of 50 μm, a time of 0.05 s, 8 photocoagulation site for each eye, for inducing the neovascularization in choroid, and gradually proceeding to retinal hyperplasia to obtain AMD C57BL/6 mice. […] Wherein, the left eye was dropped with human TTR prepared in Example 5, or human TTR prepared in Example 5 added with the ligand, specifically with 10 μmol/L human TTR (saline solution+2% hyaluronic acid), 10 μmol/L human TTR (saline solution+2% hyaluronic acid+10 diclofenac sodium), 10 μmol/L human TTR (saline solution+2% hyaluronic acid+5 μmol/L vitamin A+5% Tween 80) and 10 μmol/L human TTR (saline solution+2% hyaluronic acid+5 μmol/L luteoloside); the right eye was dropped with saline solution+2% hyaluronic acid, or saline solution+2% hyaluronic acid+ligand as control, specifically with saline solution+2% hyaluronic acid, saline solution+2% hyaluronic acid+10 diclofenac sodium, saline solution+2% hyaluronic acid+5 μmol/L vitamin A+5% Tween 80 and saline solution+2% hyaluronic acid+5 luteoloside. In addition, there was another group of normal C57BL/6 mice as a normal control group (5 mice). The animals were sacrificed after eye dropping for 2 weeks, and the retina was stripped for EB staining to observe the retinal leakage conditions, and for Trypsin enzymatic hydrolysis to observe the density of neovascularization.

[6] = DR SD rats induced by STZ, 3 months of eye dropping, ligand independently (no TTR) in saline + 2% hyaluronic acid: 10 μmol/L diclofenac sodium/5 μmol/L vitamin A + 5% Tween 80/5 μmol/L luteoloside, right eye
[7] = ROP SD suckling rats induced by hyperbaric oxygen chamber, 5 days of eye dropping, ligand independently (no TTR) in saline + 2% hyaluronic acid: 10 μmol/L diclofenac sodium/5 μmol/L vitamin A + 5% Tween 80/5 μmol/L luteoloside, right eye
[8] = AMD C57BL/6 mice induced by laser retinal photocoagulation, 2 weeks of eye dropping, ligand independently (no TTR) in saline + 2% hyaluronic acid: 10 μmol/L diclofenac sodium/5 μmol/L vitamin A + 5% Tween 80/5 μmol/L luteoloside, right eye
[9] = DR SD rats induced by STZ, 3 months
[10] = DR SD rats, 10 μmol/L in saline solution + 2% hyaluronic acid, eyedropping twice a day, 3 months
[11] = ROP SD suckling rats, 10 μmol/L in saline solution + 2% hyaluronic acid, eyedropping once per day, 5 days
[12] = AMD C57BL/6 mice, 10 μmol/L in saline solution + 2% hyaluronic acid, eyedropping twice per day, 2 weeks

Question: Which “molecules of ligand that one molecule of TTR dimer can bind” value [1] does the source give for `O=C(O)Cc1ccccc1Nc1c(Cl)cccc1Cl` [diclofenac] here?
Answer: Its value is “two molecules”.

Question: Which Kd [2] does the source give for `CC1=C(/C=C/C(C)=C/C=C/C(C)=C/CO)C(C)(C)CC=C1` [Vitamin A2, 3-dehydroretinol] here?
Answer: Its Kd is 0.0235 µM.

Question: With `O=c1cc(-c2ccc(O)c(O)c2)oc2cc(O[C@@H]3O[C@H](CO)[C@@H](O)[C@H](O)[C@H]3O)cc(O)c12` [Luteoloside, luteoloside, reference compound] as the molecule, how does the Kd [2] read?
Answer: The Kd was 0.129 µM.

Question: What about the “No. of retinal neovascularization (10 visual fields)” value (from here on “No. of retinal neovascularization”) [3, 6] of the same molecule?
Answer: The value was 79 ± 9.

Question: And the Retinal leakage area [3, 6]?
Answer: The Retinal leakage area was 27.6%.

Question: And the Retinal leakage area [4, 7]?
Answer: The Retinal leakage area was 51.2 ± 6.8%.

Question: What about the “No. of retinal neovascularization” value [5, 8] of the same molecule?
Answer: The value was 82 ± 8.

Question: What about the Retinal leakage area [5, 8] of the same molecule?
Answer: The Retinal leakage area was 21.3 ± 2.2%.

Question: Which Kd [2] does the source give for `O=C(O)Cc1ccccc1Nc1c(Cl)cccc1Cl` [Diclofenac sodium, diclofenac sodium, reference compound] here?
Answer: The Kd was 0.045 µM.

Question: And the “No. of retinal neovascularization” value [3, 6]?
Answer: Its value is 80 ± 9.

Question: What about the Retinal leakage area [3, 6] of the same molecule?
Answer: The Retinal leakage area was 30.4%.

Question: What about the Retinal leakage area [4, 7] of the same molecule?
Answer: The Retinal leakage area was 48.5 ± 5.8%.

Question: What about the “No. of retinal neovascularization” value [5, 8] of the same molecule?
Answer: Its value is 85 ± 6.

Question: And the Retinal leakage area [5, 8]?
Answer: Its Retinal leakage area is 25.2 ± 3.0%.

Question: What does the source list for `CC1=C(/C=C/C(C)=C/C=C/C(C)=C/CO)C(C)(C)CCC1` [Vitamin A, retinol, reference compound]?
Answer: Kd [2]: 0.0227 µM; No. of retinal neovascularization (10 visual fields) [3, 6]: 76 ± 8; Retinal leakage area [3, 6]: 28.9%; Retinal leakage area [4, 7]: 46.9 ± 4.9%; No. of retinal neovascularization (10 visual fields) [5, 8]: 79 ± 10; Retinal leakage area [5, 8]: 26.7 ± 3.4%

Question: With “human TTR-CL: human mature TTR losing C terminus-TNPKE, amino acid sequence of SEQ ID NO: 11” as the molecule, how does the “eyeball retinal leakage condition (in words)” value [3, 9] read?
Answer: The value was “significantly inhibited”.

Question: And the “number of retinal neovascularization (in words)” value [3, 9]?
Answer: Its value is “reduced significantly”.

Question: What about the “No. of retinal neovascularization” value [3, 10] of the same molecule?
Answer: The value was 10 ± 1.

Question: And the Retinal leakage area [3, 10]?
Answer: The Retinal leakage area was 5.7 ± 0.9%.

Question: And the Retinal leakage area [4, 11]?
Answer: The Retinal leakage area was 3.0%.

Question: And the “No. of retinal neovascularization” value [5, 12]?
Answer: Its value is 11 ± 2.

Question: What about the Retinal leakage area [5, 12] of the same molecule?
Answer: The Retinal leakage area was 4.8 ± 0.6%.

Question: And the “eyeball retinal leakage condition (in words)” value ([5]; AMD C57BL/6 mice, 2 weeks)?
Answer: Its value is “inhibited significantly”.

Question: And the “number of retinal neovascularization / neovascularization condition (in words)” value ([5]; AMD C57BL/6 mice, 2 weeks)?
Answer: The value was “reduced significantly”.

Question: What does the source list for “mouse TTR: recombinant mouse TTR, amino acid sequence SEQ ID NO: 10”?
Answer: No. of retinal neovascularization (10 visual fields) [5, 12]: 10 ± 3; Retinal leakage area [5, 12]: 4.2 ± 0.5%; eyeball retinal leakage condition (in words) ([5]; AMD C57BL/6 mice, 2 weeks): inhibited significantly; number of retinal neovascularization / neovascularization condition (in words) ([5]; AMD C57BL/6 mice, 2 weeks): reduced significantly

Question: Which results are given for “rat TTR: recombinant rat TTR, amino acid sequence SEQ ID NO: 9”?
Answer: eyeball retinal leakage condition (in words) [3, 9]: significantly inhibited; number of retinal neovascularization (in words) [3, 9]: reduced significantly; No. of retinal neovascularization (10 visual fields) [3, 10]: 13 ± 2; Retinal leakage area [3, 10]: 6.2 ± 0.7%; Retinal leakage area [4, 11]: 3.6%
